Earlier results, collected in patent US20070066584A1, “Amido compounds and their use as pharmaceuticals” (priority 2005, published 2007).

Target: T1, 11βHSD1 (Homo sapiens, UniProt P28845)
T1 construct: host or cells: healthy volunteers (eye; non-pigmented epithelial cells), in vivo
Conditions: healthy volunteers; after seven days of carbenoxolone treatment

T1 sequence (P28845 whole entry): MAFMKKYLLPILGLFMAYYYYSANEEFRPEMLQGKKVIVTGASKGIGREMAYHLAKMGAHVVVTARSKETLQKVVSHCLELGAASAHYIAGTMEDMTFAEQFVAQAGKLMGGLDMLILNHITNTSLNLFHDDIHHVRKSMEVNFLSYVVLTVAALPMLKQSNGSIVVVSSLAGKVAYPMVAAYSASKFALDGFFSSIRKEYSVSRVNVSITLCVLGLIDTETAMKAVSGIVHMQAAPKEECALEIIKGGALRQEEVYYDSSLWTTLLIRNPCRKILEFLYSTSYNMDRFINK

## CC1(C)[C@@H](OC(=O)CCC(=O)O)CC[C@]2(C)[C@H]3C(=O)C=C4[C@@H]5C[C@@](C)(C(=O)O)CC[C@]5(C)CC[C@@]4(C)[C@]3(C)CC[C@@H]12 [carbenoxolone]
  IOP reduced: 18%
